This note sets out measurements from ChEMBL document CHEMBL3045118, “Synthesis and biological activities of new Mannich bases of chlorokojic acid derivatives” (Med Chem Res, 2011).

In brackets after ≈: the same amount, converted by molar mass. Activity calls are given as the source filed them. Where only a bound is given, the exact number is not on record here.

In general, MIC refers to the smallest concentration in the dilution series that meets the test's criterion for growth inhibition.

Holding throughout (format): functional
The test system of experiment [1] is Enterococcus faecalis. Nature of the experiment: Antibacterial activity against Enterococcus faecalis ATCC 29212 by microdilution method. A general note: In broth dilution the organism is exposed to a series of concentrations in liquid medium.
A further experiment deals with Candida albicans. Kind of experiment: Antifungal activity against Candida albicans ATCC 10231 by microdilution method.
The subject of experiment [2] is Staphylococcus aureus. Nature of the experiment: Antibacterial activity against Staphylococcus aureus ATCC 25923 by microdilution method.
Another experiment deals with Candida parapsilosis. Nature of the experiment: Antifungal activity against Candida parapsilosis ATCC 22019 by microdilution method.
The subject of experiment [3] is Enterococcus faecalis. Nature of the experiment: Antibacterial activity against cephalosporins and beta-lactam-resistant Enterococcus faecalis by microdilution method.
The test system of experiment [4] is Bacillus subtilis. Nature of the experiment: Antibacterial activity against ceftriaxon-resistant Bacillus subtilis by microdilution method.
Experiment [5] relates to Bacillus subtilis. Nature of the experiment: Antibacterial activity against Bacillus subtilis ATCC 6633 by microdilution method.
Experiment [6] has as its system Staphylococcus aureus. Nature of the experiment: Antibacterial activity against oxacillin, gentamicin, aztreonam, trimethoprim-sulfamethoxazole-resistant Staphylococcus aureus by microdilution method.
Experiment [7] has as its system Klebsiella pneumoniae. Kind of experiment: Antibacterial activity against Klebsiella pneumoniae RSKK 574 by microdilution method.
Experiment [8] relates to Proteus mirabilis. Nature of the experiment: Antibacterial activity against Proteus mirabilis ATCC 7002 by microdilution method.
The subject of experiment [9] is Proteus mirabilis. Kind of experiment: Antibacterial activity against ESbetaL positive rimethoprim-sulfamethoxazole, cefepime, tazobactam-resistant Proteus mirabilis by microdilution method.
Experiment [10] deals with Acinetobacter baumannii. Kind of experiment: Antibacterial activity against trimethoprim-sulfamethoxazole, cefepime-resistant Acinetobacter baumannii by microdilution method.
In experiment [11] the test system is Acinetobacter baumannii. Nature of the experiment: Antibacterial activity against Acinetobacter baumannii RSKK 02026 by microdilution method.
In experiment [12] the test system is Pseudomonas aeruginosa. Kind of experiment: Antibacterial activity against trimethoprim-sulfamethoxazole, tazobactam-resistant Pseudomonas aeruginosa by microdilution method.
Experiment [13] relates to Pseudomonas aeruginosa. Kind of experiment: Antibacterial activity against Pseudomonas aeruginosa ATCC 10145 by microdilution method.
The next experiment deals with Escherichia coli. Kind of experiment: Antibacterial activity against ESbetaL positive trimethoprim-sulfamethoxazole, cefepime, tazobactam-resistant Escherichia coli isolate by microdilution method.
The subject of experiment [14] is Klebsiella pneumoniae. Kind of experiment: Antibacterial activity against ESbetaL positive trimethoprim-sulfamethoxazole, amoxicillin clavulonat, cefriaxon, cephepim, aztreonam-resistant Klebsiella pneumoniae by microdilution method.

On to `CC(=O)N1CCN(c2ccc(OCC3COC(Cn4ccnc4)(c4ccc(Cl)cc4Cl)O3)cc2)CC1` (centres undefined) [KETOCONAZOLE], for which the MIC result in the experiment with Enterococcus faecalis [1], with Staphylococcus aureus [2], in the experiment on Enterococcus faecalis [3], with Bacillus subtilis [4], in the experiment with Bacillus subtilis [5] and in the experiment with Staphylococcus aureus [6] was “inactive” in each case. The MIC against Candida albicans and against Candida parapsilosis (Lodderomyces parapsilosis) was 1 µg/mL (≈ 1.88 µM) each time.

Regarding `CC1COc2c(N3CCN(C)CC3)c(F)cc3c(=O)c(C(=O)O)cn1c23` (centres undefined) [OFLOXACIN], the MIC in the experiment on Enterococcus faecalis [1] was 1 µg/mL (≈ 2.77 µM); with Klebsiella pneumoniae [7], below 0.12 µg/mL; in the experiment on Proteus mirabilis [8], below 0.12 µg/mL; with Proteus mirabilis [9], 1 µg/mL; against Staphylococcus aureus [2], 0.25 µg/mL (≈ 0.692 µM); in the experiment with Enterococcus faecalis [3], 32 µg/mL (≈ 88.6 µM). For the same compound, the MIC against Acinetobacter baumannii [10] was 64 µg/mL (≈ 177 µM); with Acinetobacter baumannii [11], 0.12 µg/mL (≈ 0.332 µM); against Staphylococcus aureus [6] it was 64 µg/mL (≈ 177 µM). The MIC entry in the experiment with Candida albicans, in the experiment with Candida parapsilosis, in the experiment with Bacillus subtilis [4] and in the experiment with Bacillus subtilis [5] was “inactive” each time.

For `CC1(C)S[C@@H]2[C@H](NC(=O)[C@H](N)c3ccccc3)C(=O)N2[C@H]1C(=O)O` [AMPICILLIN], the MIC against Enterococcus faecalis [1] was 0.5 µg/mL (≈ 1.43 µM); in the experiment on Klebsiella pneumoniae [7], 2 µg/mL (≈ 5.72 µM); in the experiment with Proteus mirabilis [8], 2 µg/mL (≈ 5.72 µM); in the experiment on Escherichia coli, above 128 µg/mL; in the experiment with Proteus mirabilis [9], above 128 µg/mL; with Staphylococcus aureus [2], below 0.12 µg/mL. Moreover, the MIC is above 128 µg/mL against Enterococcus faecalis [3]; 0.5 µg/mL (≈ 1.43 µM) with Bacillus subtilis [4]; 0.12 µg/mL (≈ 0.343 µM) against Bacillus subtilis [5]; above 128 µg/mL in the experiment with Acinetobacter baumannii [10]; 2 µg/mL (≈ 5.72 µM) in the experiment with Acinetobacter baumannii [11]; above 128 µg/mL with Klebsiella pneumoniae [14]. The compound further showed an MIC against Staphylococcus aureus [6] above 128 µg/mL. Also, the MIC result in the experiment with Pseudomonas aeruginosa [12], with Pseudomonas aeruginosa [13], in the experiment with Candida albicans and with Candida parapsilosis was “inactive” each time.

As to `OC(Cn1cncn1)(Cn1cncn1)c1ccc(F)cc1F` [FLUCONAZOLE], the MIC result in the experiment on Enterococcus faecalis [1], in the experiment on Staphylococcus aureus [2], in the experiment with Enterococcus faecalis [3], in the experiment with Bacillus subtilis [4], in the experiment with Bacillus subtilis [5] and in the experiment on Staphylococcus aureus [6] was “inactive” each time. Also, the MIC in the experiment with Candida albicans is 2 µg/mL (≈ 6.53 µM); with Candida parapsilosis (Lodderomyces parapsilosis), 4 µg/mL (≈ 13.1 µM).

On to `C[C@H]1COc2c(N3CCN(C)CC3)c(F)cc3c(=O)c(C(=O)O)cn1c23.C[C@H]1COc2c(N3CCN(C)CC3)c(F)cc3c(=O)c(C(=O)O)cn1c23.O` [LEVOFLOXACIN], for which the MIC with Enterococcus faecalis [1] is 0.5 µg/mL; against Klebsiella pneumoniae [7], below 0.12 µg/mL; against Proteus mirabilis [8], below 0.12 µg/mL; in the experiment with Proteus mirabilis [9] it was 1 µg/mL; against Staphylococcus aureus [2], 0.25 µg/mL; against Enterococcus faecalis [3] it was 32 µg/mL. Moreover, the MIC against Acinetobacter baumannii [10] was found to be 64 µg/mL; in the experiment with Acinetobacter baumannii [11], 0.12 µg/mL; against Staphylococcus aureus [6], 128 µg/mL. The MIC result in the experiment with Candida albicans, in the experiment with Candida parapsilosis, in the experiment with Bacillus subtilis [4] and with Bacillus subtilis [5] was “inactive” in each case.
